Results from patent US10981926B2 (Janssen Pharmaceutica NV, priority 2016, dated 2021).

Key:
rGABA-gated Cl− channel = test: GABA-Gated Cl Channel Antagonist Radioligand Binding Assay; design: species or system rat; settings: 10 μM single point, [35S]-TBPS, cerebral cortex membrane homogenates
Procedure, shortened: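 Rat cerebral cortex membranes (120 μg protein) incubated 120 min at 22° C with 3 nM […] in 50 mM Na2HPO4/KH2PO4 pH 7.4, 500 mM NaCl; nonspecific binding defined with 20 μM picrotoxinin. Bound label counted after filtration; values are percent inhibition of specific binding at 10 μM compound.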

[1] = molecular target: T1, wild-type Androgen Receptor (AR-wt) (Homo sapiens (Human), UniProt P10275); test: LNCaP-AR-wt AG reporter assay (agonist mode); format: cell-based; settings: for EC50: pEC50 = −Log10(EC50 in Molar), read-out: LNCaP-AR-wt AG pEC50 (converted); for Emax: read-out: LNCaP-AR-wt AG MAX % Stim
[2] = molecular target: T2, F876L mutant Androgen Receptor (AR-F876L) (Homo sapiens (Human), UniProt P10275, F877L); test: LNCaP-AR-F876L ANT reporter assay (antagonist mode); format: cell-based; settings: for IC50 / LNCaP-AR-F876L ANT pIC50: pIC50 = −Log10(IC50 in Molar); for IC50: read-out: LNCaP-AR-F876L ANT pIC50 (converted); for Emax: read-out: LNCaP-AR-F876L ANT MAX % Inh
[3] = molecular target: T2, F876L mutant Androgen Receptor (AR-F876L); test: LNCaP-AR-F876L AG reporter assay (agonist mode); format: cell-based; settings: for EC50: pEC50 = −Log10(EC50 in Molar), read-out: LNCaP-AR-F876L AG pEC50 (converted); for Emax: read-out: LNCaP-AR-F876L AG MAX % Stim
[4] = molecular target: T1, wild-type Androgen Receptor (AR-wt); test: LNCaP-AR-wt ANT reporter assay (antagonist mode); format: cell-based; settings: for IC50 / LNCaP-AR-wt ANT pIC50: pIC50 = −Log10(IC50 in Molar); for IC50: read-out: LNCaP-AR-wt ANT pIC50 (converted); for Emax: read-out: LNCaP-AR-wt ANT MAX % Inh
[5] = maximum % stimulation (agonist response) over the tested concentration range
[6] = maximum % inhibition of R1881 control response over the tested concentration range
[7] = agonist mode, maximum % stimulation over tested concentration range
[8] = antagonist mode, maximum % inhibition of R1881 control response over tested concentration range

T2 sequence (P10275 whole entry F877L): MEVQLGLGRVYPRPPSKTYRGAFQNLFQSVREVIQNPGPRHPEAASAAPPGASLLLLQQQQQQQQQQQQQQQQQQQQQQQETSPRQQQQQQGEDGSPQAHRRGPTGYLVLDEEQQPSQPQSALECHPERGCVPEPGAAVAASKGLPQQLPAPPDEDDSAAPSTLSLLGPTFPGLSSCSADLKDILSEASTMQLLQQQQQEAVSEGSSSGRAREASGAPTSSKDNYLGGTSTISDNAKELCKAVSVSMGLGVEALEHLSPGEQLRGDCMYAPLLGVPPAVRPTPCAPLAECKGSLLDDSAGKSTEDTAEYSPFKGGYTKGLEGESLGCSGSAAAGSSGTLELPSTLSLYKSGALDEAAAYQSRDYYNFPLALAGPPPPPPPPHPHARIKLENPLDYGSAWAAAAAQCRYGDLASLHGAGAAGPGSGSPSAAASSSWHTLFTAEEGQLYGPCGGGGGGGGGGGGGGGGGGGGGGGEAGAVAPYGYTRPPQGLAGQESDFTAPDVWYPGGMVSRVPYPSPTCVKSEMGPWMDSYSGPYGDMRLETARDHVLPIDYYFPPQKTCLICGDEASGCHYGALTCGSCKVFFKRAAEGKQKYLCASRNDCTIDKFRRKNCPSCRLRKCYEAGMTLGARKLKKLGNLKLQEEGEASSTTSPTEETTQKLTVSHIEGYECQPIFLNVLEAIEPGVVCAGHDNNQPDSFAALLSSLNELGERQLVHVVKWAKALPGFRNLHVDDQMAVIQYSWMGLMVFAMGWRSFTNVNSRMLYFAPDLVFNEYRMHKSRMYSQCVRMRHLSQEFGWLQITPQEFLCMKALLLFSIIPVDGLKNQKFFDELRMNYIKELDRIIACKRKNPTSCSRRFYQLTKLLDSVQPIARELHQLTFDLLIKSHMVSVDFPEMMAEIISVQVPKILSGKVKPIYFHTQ
T1 sequence (P10275 whole entry): as the sequence (P10275 whole entry F877L) above, with L877F counted along it

SMILES | rGABA-gated Cl− channel % inh @10 μM (rGABA-gated Cl− channel) [%] | EC50 ([1]; agonist mode) [nM] | Emax [1, 5] [%] | IC50 ([2]; antagonist mode) [nM] | Emax [2, 6] [%] | EC50 ([3]; agonist mode) [nM] | Emax [3, 5] [%] | IC50 ([4]; antagonist mode) [nM] | Emax [4, 6] [%] | Emax [1, 7] [%] | Emax [2, 8] [%] | Emax [3, 7] [%] | Emax [4, 8] [%] | LNCaP-AR-F876L ANT pIC50 ([2]; antagonist mode) | LNCaP-AR-wt ANT pIC50 ([4]; antagonist mode)
CNC(=O)N1CCC(CNC(=O)c2ccc(N3C(=S)N(c4cnc(C#N)c(C(F)(F)F)c4)C(=O)C34CCC4)cc2)CC1 [Cpd 73, 4-[[[4-[6-[6-cyano-5-(trifluoromethyl)-3-pyridyl]-5-oxo-7-thioxo-6,8-diazaspiro[3.4]octan-8-yl]benzoyl]amino]methyl]-N-methyl-piperidine-1-carboxamide] | 80.1 | > 15100 | 1 | 224 | 97.6 | > 15100 | 0.5 | 501 | 101 | – | – | – | – | – | –
N#Cc1ncc(N2C(=O)C3(CCC3)N(c3ccc(OC4CC5(CCN5)C4)cc3)C2=S)cc1C(F)(F)F (stereo not drawn) [Cpd 148, 5-[8-[4-(3-azaspiro[3.3]heptan-6-yloxy)phenyl]-5-oxo-7-thioxo-6,8-diazaspiro[3.4]octan-6-yl]-3-(trifluoromethyl)pyridine-2-carbonitrile] | 77.3 | > 15100 | 0.1 | 126 | 101 | > 15100 | 0.6 | 302 | 101 | – | – | – | – | – | –
CN1CC[C@H](Oc2ccc(N3C(=S)N(c4cnc(C#N)c(C(F)(F)F)c4)C(=O)C34CCC4)cc2)[C@@H](F)C1 (racemic) [Cpd 92, 5-[8-[(3SR, 4SR)-4-[(3-fluoro-1-methyl-4-piperidyl)oxy]phenyl]-5-oxo-7-thioxo-6,8-diazaspiro[3.4]octan-6-yl]-3-(trifluoromethyl)pyridine-2-carbonitrile] | 73.4 | > 15100 | 0.3 | 60.3 | 98.2 | > 15100 | 0.5 | 77.6 | 101 | – | – | – | – | – | –
C[N@+]1([O-])CC[C@@H](Oc2ccc(N3C(=S)N(c4cnc(C#N)c(C(F)(F)F)c4)C(=O)C34CCC4)cc2)CC1 [Cpd 191, 5-[8-[4-(1-methyl-1-oxido-piperidin-1-ium-4-yl)oxyphenyl]-5-oxo-7-thioxo-6,8-diazaspiro[3.4]octan-6-yl]-3-(trifluoromethyl)pyridine-2-carbonitrile] | 47.9 | > 15100 | – | 1120 | – | > 15100 | – | 1380 | – | -0.2 | 99.8 | 0 | 99.4 | – | –
N#Cc1ncc(N2C(=O)C3(CCC3)N(c3ccc(O[C@@H]4CCN[C@@H](C(F)(F)F)C4)cc3)C2=S)cc1C(F)(F)F (racemic) [Cpd 106, 5-[5-oxo-7-thioxo-8-[4-[[(2RS,4RS)-2-(trifluoromethyl)-4-piperidyl]oxy]phenyl]-6,8-diazaspiro[3.4]octan-6-yl]-3-(trifluoromethyl)pyridine-2-carbonitrile] | 87.1 | > 15100 | 0.1 | 219 | 99.7 | > 15100 | 0.7 | 174 | 102 | – | – | – | – | – | –
Cc1cc(N2C(=O)C3(CCC3)N(c3ccc(OC4CCNCC4)nc3)C2=S)cnc1C#N [Cpd 87, 3-methyl-5-[5-oxo-8-[6-(4-piperidyloxy)-3-pyridyl]-7-thioxo-6,8-diazaspiro[3.4]octan-6-yl]pyridine-2-carbonitrile] | −14.8 | > 15100 | 0.1 | – | 100 | > 15100 | 0.1 | – | 101 | – | – | – | – | 7.09 | 6.92
N#Cc1ncc(N2C(=O)C3(CCC3)N(c3ccc(OC4CCNC(=O)C4)cc3)C2=S)cc1C(F)(F)F (racemic) [Cpd 195, (R,S)-5-[5-oxo-8-[4-[(2-oxo-4-piperidyl)oxy]phenyl]-7-thioxo-6,8-diazaspiro[3.4]octan-6-yl]-3-(trifluoromethyl)pyridine-2-carbonitrile] | 94.2 | > 15100 | – | 174 | – | > 15100 | – | 186 | – | 0 | 100 | 0.6 | 102 | – | –
N#Cc1ncc(N2C(=O)C3(CCC3)N(c3ccc(OC4CCNCC4)cc3)C2=S)cc1Cl [Cpd 44, 3-chloro-5-[5-oxo-8-[4-(4-piperidyloxy)phenyl]-7-thioxo-6,8-diazaspiro[3.4]octan-6-yl]pyridine-2-carbonitrile] | −0.5 | > 15100 | 0.7 | – | 101 | > 15100 | 0.1 | – | 98.8 | – | – | – | – | 7.43 | 7.12
CCOC(=O)N1CCN(c2ccc(N3C(=S)N(c4cnc(C#N)c(C(F)(F)F)c4)C(=O)C34CCC4)cc2)CC1 [Cpd 58, Ethyl 4-[4-[6-[6-cyano-5-(trifluoromethyl)-3-pyridyl]-5-oxo-7-thioxo-6,8-diazaspiro[3.4]octan-8-yl]phenyl]piperazine-1-carboxylate] | 88.1 | > 15100 | 0 | 93.3 | 98.1 | > 15100 | 1 | 87.1 | 101 | – | – | – | – | – | –
N#CCN1CCC(Oc2ccc(N3C(=S)N(c4cnc(C#N)c(Cl)c4)C(=O)C34CCC4)cn2)CC1 [Cpd 65, 3-chloro-5-[8-[6-[[1-(cyanomethyl)-4-piperidyl]oxy]-3-pyridyl]-5-oxo-7-thioxo-6,8-diazaspiro[3.4]octan-6-yl]pyridine-2-carbonitrile] | 67.2 | > 15100 | 0.4 | 8.51 | 99.3 | > 15100 | 0.4 | 7.24 | 101 | – | – | – | – | – | –
N#Cc1ncc(N2C(=O)C3(CCC3)N(c3ccc4nn(C5CCNCC5)cc4c3)C2=S)cc1Cl [Cpd 180, 3-chloro-5-[5-oxo-8-[2-(4-piperidyl)indazol-5-yl]-7-thioxo-6,8-diazaspiro[3.4]octan-6-yl]pyridine-2-carbonitrile] | 36.7 | > 15100 | 0.2 | 97.7 | 104 | > 15100 | 0.2 | 219 | 106 | – | – | – | – | – | –
N#Cc1ncc(N2C(=O)C3(CCC3)N(c3ccc(CC4CCC(N)CC4)cc3)C2=S)cc1C(F)(F)F (stereo not drawn) [Cpd 233, 5-[8-[4-[(4-aminocyclohexyl)methyl]phenyl]-5-oxo-7-thioxo-6,8-diazaspiro[3.4]octan-6-yl]-3-(trifluoromethyl)pyridine-2-carbonitrile] | 80.2 | > 15100 | – | 186 | – | > 15100 | – | 240 | – | -0.2 | 103 | 0 | 108 | – | –
CN1CCC(CNC(=O)c2ccc(N3C(=S)N(c4cnc(C#N)c(C(F)(F)F)c4)C(=O)C34CCC4)cc2)CC1 [Cpd 72, 4-[6-[6-cyano-5-(trifluoromethyl)-3-pyridyl]-5-oxo-7-thioxo-6,8-diazaspiro[3.4]octan-8-yl]-N-[(1-methyl-4-piperidyl)methyl]benzamide] | 20.0 | > 15100 | -0.1 | 174 | 100 | > 15100 | 0 | 275 | 101 | – | – | – | – | – | –
N#Cc1ncc(N2C(=O)C3(CCC3)N(c3ccc(CN4CCNCC4)cc3)C2=S)cc1Cl [Cpd 207, 3-chloro-5-[5-oxo-8-[4-(piperazin-1-ylmethyl)phenyl]-7-thioxo-6,8-diazaspiro[3.4]octan-6-yl]pyridine-2-carbonitrile] | 27.9 | > 15100 | – | 380 | – | > 15100 | – | 407 | – | 0 | 100 | 0 | 101 | – | –
Cn1cc2cc(N3C(=S)N(c4cnc(C#N)c(C(F)(F)F)c4)C(=O)C34CCC4)ccc2n1 [Cpd 174, 5-[8-(2-methylindazol-5-yl)-5-oxo-7-thioxo-6,8-diazaspiro[3.4]octan-6-yl]-3-(trifluoromethyl)pyridine-2-carbonitrile] | 94.9 | > 15100 | 0 | 219 | 101 | > 15100 | 0.1 | 407 | 102 | – | – | – | – | – | –
